Experimental data published in ChEMBL document CHEMBL4665854, “Backbone Cyclization Turns a Venom Peptide into a Stable and Equipotent Ligand at Both Muscle and Neuronal Nicotinic Receptors” (J Med Chem, 2020).
Activity calls are given as the source filed them. The rule behind the calls is not given here. Positions of bridges follow the written chain, without caps; N, C: chain ends. Residues, ends and D or L forms follow the SMILES beside them.

Tests used:
[1] = target: T1, CHRNA1/CHRNB1/CHRNG/CHRND (Rattus norvegicus) (UniProt P25109+P25108+P25110+P18916); assay: Inhibition of rat (alpha1)2betagammadelta expressed in Xenopus laevis oocytes assessed as dissociation rate constant for inhibition of acetylcholine-induced channel current response at -70 mV holding potential by two-electrode voltage-clamp assay; format: cell-based; conditions: Oocyte
[2] = target: CHRNA1/CHRNB1/CHRNG/CHRND (Rattus norvegicus, UniProt P18916+P25108+P25109+P25110); assay: Inhibition of rat (alpha1)2betagammadelta expressed in Xenopus laevis oocytes assessed as inhibition of acetylcholine-induced channel current response at -70 mV holding potential by two-electrode voltage-clamp assay; format: cell-based, Oocyte
Chain of CHRNA1/CHRNB1/CHRNG/CHRND (P25109 whole entry): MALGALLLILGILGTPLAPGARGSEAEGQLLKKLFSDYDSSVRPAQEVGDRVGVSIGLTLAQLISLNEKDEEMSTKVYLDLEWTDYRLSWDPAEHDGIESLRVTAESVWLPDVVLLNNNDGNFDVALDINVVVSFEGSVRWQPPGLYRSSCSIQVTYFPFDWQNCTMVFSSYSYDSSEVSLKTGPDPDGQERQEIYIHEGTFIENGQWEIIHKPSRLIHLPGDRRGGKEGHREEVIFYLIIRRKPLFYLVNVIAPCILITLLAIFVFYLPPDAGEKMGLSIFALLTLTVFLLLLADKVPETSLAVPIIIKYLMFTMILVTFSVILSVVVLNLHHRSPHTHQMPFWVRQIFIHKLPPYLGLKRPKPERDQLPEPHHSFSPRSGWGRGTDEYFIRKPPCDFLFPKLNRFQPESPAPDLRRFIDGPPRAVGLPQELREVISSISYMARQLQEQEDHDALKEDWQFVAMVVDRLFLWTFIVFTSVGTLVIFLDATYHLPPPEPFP
Chain of CHRNA1/CHRNB1/CHRNG/CHRND (P25108 whole entry): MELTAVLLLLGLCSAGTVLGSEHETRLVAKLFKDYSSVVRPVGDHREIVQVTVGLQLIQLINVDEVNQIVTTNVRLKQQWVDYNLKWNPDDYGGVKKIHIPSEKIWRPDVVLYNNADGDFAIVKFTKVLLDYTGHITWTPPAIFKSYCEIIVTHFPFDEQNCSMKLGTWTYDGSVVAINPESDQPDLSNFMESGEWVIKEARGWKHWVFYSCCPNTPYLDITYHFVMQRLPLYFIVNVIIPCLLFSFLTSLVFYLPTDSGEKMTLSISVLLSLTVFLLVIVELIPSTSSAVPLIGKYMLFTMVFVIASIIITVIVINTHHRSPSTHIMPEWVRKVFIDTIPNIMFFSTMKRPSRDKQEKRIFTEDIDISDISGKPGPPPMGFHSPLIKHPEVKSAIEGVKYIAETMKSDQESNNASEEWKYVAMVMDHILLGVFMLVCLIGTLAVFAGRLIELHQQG
Chain of CHRNA1/CHRNB1/CHRNG/CHRND (P25110 whole entry): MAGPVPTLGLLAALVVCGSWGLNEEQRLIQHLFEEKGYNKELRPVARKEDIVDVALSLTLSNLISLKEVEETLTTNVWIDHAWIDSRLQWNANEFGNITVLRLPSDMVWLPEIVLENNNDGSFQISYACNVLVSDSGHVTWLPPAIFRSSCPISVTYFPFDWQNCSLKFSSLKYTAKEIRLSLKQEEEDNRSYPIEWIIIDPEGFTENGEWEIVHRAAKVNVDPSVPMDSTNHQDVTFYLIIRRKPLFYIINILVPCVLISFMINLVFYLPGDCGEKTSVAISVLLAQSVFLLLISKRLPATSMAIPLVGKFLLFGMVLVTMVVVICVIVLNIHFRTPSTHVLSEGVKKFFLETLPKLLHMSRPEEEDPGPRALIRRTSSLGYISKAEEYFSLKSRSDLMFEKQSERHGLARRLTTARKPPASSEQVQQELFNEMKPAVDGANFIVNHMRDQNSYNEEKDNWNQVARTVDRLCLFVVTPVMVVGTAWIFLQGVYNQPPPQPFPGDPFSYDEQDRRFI
Chain of CHRNA1/CHRNB1/CHRNG/CHRND (P18916 whole entry): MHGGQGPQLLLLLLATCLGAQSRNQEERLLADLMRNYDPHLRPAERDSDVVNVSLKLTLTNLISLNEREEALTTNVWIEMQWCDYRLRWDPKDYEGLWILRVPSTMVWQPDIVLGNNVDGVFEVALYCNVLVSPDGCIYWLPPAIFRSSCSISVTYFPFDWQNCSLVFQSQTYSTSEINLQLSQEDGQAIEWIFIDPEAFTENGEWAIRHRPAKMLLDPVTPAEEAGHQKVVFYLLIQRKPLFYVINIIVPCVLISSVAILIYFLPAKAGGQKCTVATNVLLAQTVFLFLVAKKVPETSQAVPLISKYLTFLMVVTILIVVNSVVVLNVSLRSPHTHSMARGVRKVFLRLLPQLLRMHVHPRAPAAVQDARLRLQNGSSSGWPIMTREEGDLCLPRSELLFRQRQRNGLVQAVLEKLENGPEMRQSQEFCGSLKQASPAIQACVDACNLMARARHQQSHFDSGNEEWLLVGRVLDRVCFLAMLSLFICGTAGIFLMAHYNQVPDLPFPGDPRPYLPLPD

[3] = system: Phrenic nerve-diaphragm muscle; assay: Inhibition of muscle contraction in Swiss mouse isolated phrenic nerve hemidiaphragm muscle preparation assessed as reduction of 0.1 Hz stimulation-induced isometric twitch force incubated for 20 to 25 mins; format: functional, tissue-based
[4] = system: Phrenic nerve-diaphragm muscle; assay: Reduction in fading of train-of four repetitive stimulation pattern in Swiss mouse isolated phrenic nerve hemidiaphragm muscle preparation at 20 nM; format: functional, tissue-based
Danio rerio [5] = assay: Induction of paralysis in adult Zebrafish assessed as induction of rapid flaccid skeletal muscle paralysis dosed via injection measured after 10 mins; format: functional, organism-based
[6] = target: Neuronal acetylcholine receptor; alpha3/beta2 (Rattus norvegicus, UniProt P04757+P12390); assay: Inhibition of rat alpha3beta2 expressed in Xenopus laevis oocytes assessed as inhibition of acetylcholine-induced channel current response at -70 mV holding potential by two-electrode voltage-clamp assay; format: cell-based, Oocyte
Chain of Neuronal acetylcholine receptor; alpha3/beta2 (P04757 whole entry): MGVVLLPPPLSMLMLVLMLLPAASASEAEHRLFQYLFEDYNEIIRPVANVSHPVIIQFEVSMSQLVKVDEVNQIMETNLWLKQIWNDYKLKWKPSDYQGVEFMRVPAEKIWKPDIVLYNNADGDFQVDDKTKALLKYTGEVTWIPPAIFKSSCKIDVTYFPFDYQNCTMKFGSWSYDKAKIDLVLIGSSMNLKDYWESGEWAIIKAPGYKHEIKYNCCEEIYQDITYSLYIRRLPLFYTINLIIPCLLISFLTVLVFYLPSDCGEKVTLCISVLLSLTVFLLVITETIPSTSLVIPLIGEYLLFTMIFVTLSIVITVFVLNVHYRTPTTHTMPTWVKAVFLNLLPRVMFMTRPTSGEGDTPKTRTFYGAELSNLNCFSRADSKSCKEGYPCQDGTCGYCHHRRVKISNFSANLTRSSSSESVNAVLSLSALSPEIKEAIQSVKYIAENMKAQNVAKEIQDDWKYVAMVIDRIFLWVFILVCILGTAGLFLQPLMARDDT
Chain of Neuronal acetylcholine receptor; alpha3/beta2 (P12390 whole entry): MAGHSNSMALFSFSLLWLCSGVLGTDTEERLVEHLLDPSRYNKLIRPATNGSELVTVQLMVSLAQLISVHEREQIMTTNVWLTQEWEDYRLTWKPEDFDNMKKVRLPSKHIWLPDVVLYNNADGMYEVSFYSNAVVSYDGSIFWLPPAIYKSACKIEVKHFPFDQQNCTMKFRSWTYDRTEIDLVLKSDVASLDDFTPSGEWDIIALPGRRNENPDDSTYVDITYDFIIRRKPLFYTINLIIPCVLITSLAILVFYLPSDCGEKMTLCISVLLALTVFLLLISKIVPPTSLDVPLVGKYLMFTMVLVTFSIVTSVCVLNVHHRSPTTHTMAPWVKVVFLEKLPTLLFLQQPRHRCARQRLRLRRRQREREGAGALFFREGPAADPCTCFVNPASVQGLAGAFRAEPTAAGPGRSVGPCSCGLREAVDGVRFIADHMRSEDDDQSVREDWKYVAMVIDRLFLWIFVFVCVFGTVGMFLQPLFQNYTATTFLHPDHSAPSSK

[7] = Half life in human serum at 30 uM by LC-MS analysis; format: ADME, cell-free
Danio rerio [8] = species on record: Danio rerio; assay: Induction of paralysis in Zebrafish assessed as inhibition of larvae movement movement at 100 uM added into the water and measured over 1 hr by larvae movement tracking analysis relative to control; format: functional
[9] = target: Nicotinic acetylcholine receptor alpha6/alpha3/beta2/beta3 (Rattus norvegicus, UniProt P04757+P12390+P12391+P43143); assay: Inhibition of rat alpha6alpha3beta2beta3 expressed in Xenopus laevis oocytes assessed as inhibition of acetylcholine-induced channel current response at -70 mV holding potential by two-electrode voltage-clamp assay relative to control; format: cell-based, Oocyte
[10] = target: T2, Neuronal acetylcholine receptor; alpha3/beta2 (Rattus norvegicus) (UniProt P04757+P12390); assay: Inhibition of rat alpha3beta2 expressed in Xenopus laevis oocytes assessed as wash-out time needed for recovery of ACh-induced current responses at -70 mV holding potential by two-electrode voltage-clamp assay; format: cell-based; conditions: Oocyte
[11] = target: Nicotinic acetylcholine receptor alpha-1/beta-1/delta/epsilon (Rattus norvegicus, UniProt P09660+P25108+P25109+P25110); assay: Inhibition of rat alpha1beta1epsilondelta expressed in Xenopus laevis oocytes assessed as inhibition of acetylcholine-induced channel current response at -70 mV holding potential by two-electrode voltage-clamp assay relative to control; format: cell-based, Oocyte
Chain of Nicotinic acetylcholine receptor alpha-1/beta-1/delta/epsilon (P25109 whole entry): as the sequence (P25109 whole entry) above
Chain of Nicotinic acetylcholine receptor alpha-1/beta-1/delta/epsilon (P25108 whole entry): as the sequence (P25108 whole entry) above
Chain of Nicotinic acetylcholine receptor alpha-1/beta-1/delta/epsilon (P25110 whole entry): as the sequence (P25110 whole entry) above
Chain of Nicotinic acetylcholine receptor alpha-1/beta-1/delta/epsilon (P09660 whole entry): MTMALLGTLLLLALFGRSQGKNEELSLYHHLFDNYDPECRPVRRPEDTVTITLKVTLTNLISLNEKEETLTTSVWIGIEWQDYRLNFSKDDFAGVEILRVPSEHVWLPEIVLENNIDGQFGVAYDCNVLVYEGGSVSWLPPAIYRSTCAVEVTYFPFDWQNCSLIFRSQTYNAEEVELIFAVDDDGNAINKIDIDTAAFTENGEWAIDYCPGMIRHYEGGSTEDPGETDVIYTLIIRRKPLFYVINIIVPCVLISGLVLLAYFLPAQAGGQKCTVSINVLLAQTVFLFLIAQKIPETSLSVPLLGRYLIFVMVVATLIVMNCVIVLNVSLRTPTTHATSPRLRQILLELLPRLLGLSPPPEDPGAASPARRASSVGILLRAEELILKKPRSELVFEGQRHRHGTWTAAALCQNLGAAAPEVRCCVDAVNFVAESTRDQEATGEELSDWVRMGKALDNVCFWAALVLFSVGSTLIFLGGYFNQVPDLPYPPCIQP

[12] = system: Phrenic nerve-diaphragm muscle; assay: Inhibition of muscle contraction in Swiss mouse isolated phrenic nerve hemidiaphragm muscle preparation assessed as reduction of 0.1 Hz stimulation-induced isometric twitch force by measuring time required for 40% recovery of nerve-evoked muscle contraction; format: functional
[13] = target: Neuronal acetylcholine receptor subunit alpha-7 (Homo sapiens) (UniProt P36544); assay: Inhibition of human alpha7expressed in Xenopus laevis oocytes assessed as acetylcholine-induced channel current response at 10 uM at -70 mV holding potential by two-electrode voltage-clamp assay relative to control; format: cell-based; set-up: scale not given: the % may be the effect or the level left; conditions: Oocyte
Chain of Neuronal acetylcholine receptor subunit alpha-7 (Homo sapiens) (P36544 whole entry): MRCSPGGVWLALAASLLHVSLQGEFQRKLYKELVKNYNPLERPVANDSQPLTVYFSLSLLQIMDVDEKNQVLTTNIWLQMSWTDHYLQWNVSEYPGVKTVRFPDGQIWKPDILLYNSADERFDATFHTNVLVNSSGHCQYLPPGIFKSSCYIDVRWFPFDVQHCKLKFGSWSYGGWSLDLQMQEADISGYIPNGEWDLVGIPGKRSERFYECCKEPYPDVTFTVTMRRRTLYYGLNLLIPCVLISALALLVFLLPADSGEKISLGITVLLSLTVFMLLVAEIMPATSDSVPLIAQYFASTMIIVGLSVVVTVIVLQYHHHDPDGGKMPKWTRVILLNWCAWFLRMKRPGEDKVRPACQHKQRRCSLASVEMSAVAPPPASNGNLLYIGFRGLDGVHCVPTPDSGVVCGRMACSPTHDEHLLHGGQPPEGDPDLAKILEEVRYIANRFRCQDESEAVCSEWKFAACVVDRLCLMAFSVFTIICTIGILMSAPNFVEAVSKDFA

[14] = target: Neuronal acetylcholine receptor; alpha2/beta2 (Rattus norvegicus) (UniProt P12389+P12390); assay: Inhibition of rat alpha2beta2 expressed in Xenopus laevis oocytes assessed as acetylcholine-induced channel current response at 10 uM at -70 mV holding potential by two-electrode voltage-clamp assay relative to control; format: cell-based; set-up: scale not given: the % may be the effect or the level left; conditions: Oocyte
[15] = system: Phrenic nerve-diaphragm muscle; assay: Induction of fading of train-of four repetitive stimulation pattern in Swiss mouse isolated phrenic nerve hemidiaphragm muscle preparation measured at 76% neuromuscular block; format: functional, tissue-based
[16] = target: T1, CHRNA1/CHRNB1/CHRNG/CHRND (Rattus norvegicus); assay: Inhibition of fetal rat (alpha1)2beta1gammadelta expressed in Xenopus laevis oocytes assessed as dissociation rate constant for inhibition of acetylcholine-induced channel current response at 100 nM at -70 mV holding potential by two-electrode voltage-clamp assay; format: cell-based; conditions: Oocyte
[17] = system: Phrenic nerve-diaphragm muscle; assay: Inhibition of muscle contraction in Swiss mouse isolated phrenic nerve hemidiaphragm muscle preparation assessed as reduction of 0.1 Hz stimulation-induced isometric twitch force by measuring time required to block 50% of nerve-evoked muscle contraction; format: functional
[18] = system: Phrenic nerve-diaphragm muscle; assay: (§1) Inhibition of muscle contraction in Swiss mouse isolated phrenic nerve hemidiaphragm muscle preparation assessed as reduction of twitch tension-time integrals of 0.1 Hz stimulation-induced nerve contraction at 16 nM incubated for 30 mins followed addition of 10 uM addition of 3,4-DAP for 27 mins by relative to control; format: functional, tissue-based; conditions: time 57.0 min
[19] = target: Nicotinic acetylcholine receptor alpha-1/beta-1/delta/epsilon (Homo sapiens) (UniProt P02708+P11230+Q07001+Q04844); assay: Inhibition of adult human (alpha1)2beta1epsilondelta expressed in Xenopus laevis oocytes assessed as dissociation rate constant for inhibition of acetylcholine-induced channel current response at 1 nM at -70 mV holding potential by two-electrode voltage-clamp assay relative to control; format: cell-based; conditions: Oocyte
[20] = system: Phrenic nerve-diaphragm muscle; assay: Inhibition of muscle contraction in Swiss mouse isolated phrenic nerve hemidiaphragm muscle preparation assessed as reduction of peak amplitude of 0.1 Hz stimulation-induced nerve contraction at 16 nM incubated for 30 mins relative to control; format: functional; conditions: 0.5 h
[21] = target: Neuronal acetylcholine receptor; alpha2/beta4 (Rattus norvegicus) (UniProt P12389+P12392); assay: Inhibition of rat alpha2beta4 expressed in Xenopus laevis oocytes assessed as acetylcholine-induced channel current response at 10 uM at -70 mV holding potential by two-electrode voltage-clamp assay relative to control; format: cell-based; set-up: scale not given: the % may be the effect or the level left; conditions: Oocyte
[22] = target: Neuronal acetylcholine receptor; alpha4/beta4 (Rattus norvegicus) (UniProt P09483+P12392); assay: Inhibition of rat alpha4beta4 expressed in Xenopus laevis oocytes assessed as acetylcholine-induced channel current response at 10 uM at -70 mV holding potential by two-electrode voltage-clamp assay relative to control; format: cell-based; set-up: scale not given: the % may be the effect or the level left; conditions: Oocyte
[23] = target: Neuronal acetylcholine receptor; alpha9/alpha10 (Homo sapiens) (UniProt Q9UGM1+Q9GZZ6); assay: Inhibition of human alpha9alpha10 expressed in Xenopus laevis oocytes assessed as acetylcholine-induced channel current response at 10 uM at -70 mV holding potential by two-electrode voltage-clamp assay relative to control; format: cell-based; set-up: scale not given: the % may be the effect or the level left; conditions: Oocyte
[24] = target: Neuronal acetylcholine receptor; alpha4/beta2 (Rattus norvegicus) (UniProt P09483+P12390); assay: Inhibition of rat alpha4beta2 expressed in Xenopus laevis oocytes assessed as acetylcholine-induced channel current response at 10 uM at -70 mV holding potential by two-electrode voltage-clamp assay relative to control; format: cell-based; set-up: scale not given: the % may be the effect or the level left; conditions: Oocyte
[25] = target: T2, Neuronal acetylcholine receptor; alpha3/beta2 (Rattus norvegicus); assay: Competitive inhibition of alpha-conotoxin MII binding to rat alpha3beta2 expressed in Xenopus laevis oocytes at 100 nM; format: cell-based; conditions: Oocyte
[26] = target: Neuronal acetylcholine receptor; alpha3/beta4 (Rattus norvegicus) (UniProt P04757+P12392); assay: Inhibition of rat alpha3beta4 expressed in Xenopus laevis oocytes assessed as acetylcholine-induced channel current response at 10 uM at -70 mV holding potential by two-electrode voltage-clamp assay relative to control; format: cell-based; set-up: scale not given: the % may be the effect or the level left; conditions: Oocyte
[27] = system: Phrenic nerve-diaphragm muscle; assay: as §1, with “peak amplitude” for “twitch tension-time integrals”; format: functional, tissue-based; conditions: time 57.0 min
[28] = Mus musculus, Swiss, Phrenic nerve-diaphragm muscle

`C[C@@H]1NC(=O)CNC(=O)[C@@H]2CSSC[C@@H]3NC(=O)[C@H](CSSC[C@H](NC(=O)[C@H](C)NC(=O)[C@@H]4CCCN4C(=O)[C@H](Cc4c[nH]cn4)NC3=O)C(=O)NCC(=O)N[C@@H](CCCCN)C(=O)N[C@@H](Cc3c[nH]cn3)C(=O)N[C@@H](Cc3ccccc3)C(=O)N[C@@H](CO)C(=O)N2)NC(=O)[C@H](CCCNC(=N)N)NC(=O)CNC(=O)[C@H](CC(N)=O)NC(=O)CNC(=O)[C@H](C)NC1=O` (cyclo(AAGNGRCCHPACGKHFSCG); disulfide 7-12, 8-18) showed a K [1] of 0.066 min⁻¹, an IC50 [2] of 8.64 nM and an IC50 [3, 28] of 16.5 nM. The Activity [4] was “inactive”, the Activity (Danio rerio [5]) was “Dose-dependent effect” and the IC50 (Danio rerio [5]; Danio rerio, 10 min) was 76200 nM. It also gave an IC50 [6] of 21.3 nM, a half-life at 30 µM [7] of over 8 h and an inhibition in vivo at 100 µM (Danio rerio [8]) of 25.2%.

In the case of `C[C@@H]1NC(=O)[C@@H]2CCCN2C(=O)[C@H](Cc2c[nH]cn2)NC(=O)[C@@H]2CSSC[C@@H](C(N)=O)NC(=O)[C@H](CO)NC(=O)[C@H](Cc3ccccc3)NC(=O)[C@H](Cc3c[nH]cn3)NC(=O)[C@H](CCCCN)NC(=O)CNC(=O)[C@H](CSSC[C@H](NC(=O)[C@H](CCCNC(=N)N)NC(=O)CNC(=O)[C@@H](N)CC(N)=O)C(=O)N2)NC1=O` (H-NGRCCHPACGKHFSC-NH2; disulfide 4-9, 5-15), the IC50 [3] is reported as 8.98 nM, the Activity [4] is reported as “inactive” and the Activity (Danio rerio [5]) is reported as “Dose-dependent effect”. The IC50 (Danio rerio [5]) was 6900 nM and the half-life at 30 µM [7] was 1.33 h.

Molecule `C[C@@H]1NC(=O)[C@@H]2CSSC[C@@H]3NC(=O)[C@H](CSSC[C@H](NC(=O)[C@H](C)NC(=O)[C@@H]4CCCN4C(=O)[C@H](Cc4c[nH]cn4)NC3=O)C(=O)NCC(=O)N[C@@H](CCCCN)C(=O)N[C@@H](Cc3c[nH]cn3)C(=O)N[C@@H](Cc3ccccc3)C(=O)N[C@@H](CO)C(=O)N2)NC(=O)[C@H](CCCNC(=N)N)NC(=O)CNC(=O)[C@H](CC(N)=O)NC(=O)CNC1=O` (cyclo(ACGKHFSCAGNGRCCHP); disulfide 2-14, 8-15) has a K [1] of 0.126 min⁻¹, an IC50 [2] of 7.54 nM and an IC50 [3, 28] of 13.5 nM. For the same molecule, the Activity [4] was “inactive”, the Activity (Danio rerio [5]) was “Dose-dependent effect” and the IC50 (Danio rerio [5]; Danio rerio, 10 min) was 12100 nM. It also gave an IC50 [6] of 10.3 nM, a half-life at 30 µM [7] of 7.33 h and an inhibition in vivo at 100 µM (Danio rerio [8]) of 99.8%.

Work on `C[C@@H]1NC(=O)[C@H](C)NC(=O)[C@@H]2CSSC[C@@H]3NC(=O)[C@H](CSSC[C@H](NC(=O)[C@H](C)NC(=O)[C@@H]4CCCN4C(=O)[C@H](Cc4c[nH]cn4)NC3=O)C(=O)NCC(=O)N[C@@H](CCCCN)C(=O)N[C@@H](Cc3c[nH]cn3)C(=O)N[C@@H](Cc3ccccc3)C(=O)N[C@@H](CO)C(=O)N2)NC(=O)[C@H](CCCNC(=N)N)NC(=O)CNC(=O)[C@H](CC(N)=O)NC(=O)CNC1=O` (cyclo(AAGNGRCCHPACGKHFSC); disulfide 7-12, 8-18) yielded a K [1] of 0.03 min⁻¹, an IC50 [9] of 8.64 nM and an IC50 [2] of 3.57 nM. The TIME [10] was 0.5 h, the IC50 [11] was 0.184 nM and the Time [12] was 32.6 min. For the same molecule, the IC50 [3, 28] was 8.7 nM, the Activity [4] was “inactive” and the Activity [13] was 65%. The Activity (Danio rerio [5]) was “Dose-dependent effect”, the IC50 (Danio rerio [5]; Danio rerio, 10 min) was 57900 nM and the Activity [14] was over 80%. For the same molecule, the IC50 [6] was 1.3 nM, the Activity [15] was “inactive” and the K [16] was 0.03 min⁻¹. The Time [17] was 19 min, the inhibition [18] was “inactive” and the half-life at 30 µM [7] was 5.33 h. For the same molecule, the K [19] was 0.013 min⁻¹, the inhibition at 0.016 µM [20] was 85% and the Activity [21] was over 80%. For the same molecule, the Activity [22] was over 80%, the inhibition in vivo at 100 µM (Danio rerio [8]) was 20.5% and the Activity [23] was over 80%. For the same molecule, the Activity [24] was over 80%, the inhibition [25] was “Active” and the Activity [26] was over 80%. The inhibition [27] was “inactive”.
